Measured values taken from patent US12059418B2, “Plasmodial surface anion channel inhibitors for the treatment or prevention of malaria” (The United States of America, as represented by the …, priority 2011, dated 2024).

How the values were obtained:
[1] = tested on: channels from HB3 parasites; assay: Sorbitol uptake osmotic lysis, HB3-infected cells; assay type: cell-based, P. falciparum; conditions: read-out: K0.5
Experimental: Inhibitor affinity for PSAC block was determined using a quantitative transmittance assay based on osmotic lysis of infected cells in sorbitol (Wagner et al., Biophys. J., 84: 116-123 (2003)). […] Other inhibitors had dose responses that are adequately fitted by a single Langmuir isotherm.

[2] = tested on: Dd2 channels; assay: Cell-attached patch-clamp of Dd2-infected erythrocytes; conditions: 10 μM, 1.1 M Cl−
[3] = tested on: HB3 channels; assay: Cell-attached patch-clamp of HB3-infected erythrocytes; conditions: 10 μM, 1.1 M Cl−
[4] = biological target: T1, PSAC of Dd2 transfectant expressing HB3 allele for PFC0110w (clag 3.2) (Plasmodium falciparum, UniProt O77309); assay: Sorbitol uptake inhibition, Dd2 transfectant expressing HB3 allele of PFC0110w; conditions: read-out: transfectant K0.5; PFC0110w (clag 3.2) HB3 allele in Dd2
T1 sequence (O77309 25-1416): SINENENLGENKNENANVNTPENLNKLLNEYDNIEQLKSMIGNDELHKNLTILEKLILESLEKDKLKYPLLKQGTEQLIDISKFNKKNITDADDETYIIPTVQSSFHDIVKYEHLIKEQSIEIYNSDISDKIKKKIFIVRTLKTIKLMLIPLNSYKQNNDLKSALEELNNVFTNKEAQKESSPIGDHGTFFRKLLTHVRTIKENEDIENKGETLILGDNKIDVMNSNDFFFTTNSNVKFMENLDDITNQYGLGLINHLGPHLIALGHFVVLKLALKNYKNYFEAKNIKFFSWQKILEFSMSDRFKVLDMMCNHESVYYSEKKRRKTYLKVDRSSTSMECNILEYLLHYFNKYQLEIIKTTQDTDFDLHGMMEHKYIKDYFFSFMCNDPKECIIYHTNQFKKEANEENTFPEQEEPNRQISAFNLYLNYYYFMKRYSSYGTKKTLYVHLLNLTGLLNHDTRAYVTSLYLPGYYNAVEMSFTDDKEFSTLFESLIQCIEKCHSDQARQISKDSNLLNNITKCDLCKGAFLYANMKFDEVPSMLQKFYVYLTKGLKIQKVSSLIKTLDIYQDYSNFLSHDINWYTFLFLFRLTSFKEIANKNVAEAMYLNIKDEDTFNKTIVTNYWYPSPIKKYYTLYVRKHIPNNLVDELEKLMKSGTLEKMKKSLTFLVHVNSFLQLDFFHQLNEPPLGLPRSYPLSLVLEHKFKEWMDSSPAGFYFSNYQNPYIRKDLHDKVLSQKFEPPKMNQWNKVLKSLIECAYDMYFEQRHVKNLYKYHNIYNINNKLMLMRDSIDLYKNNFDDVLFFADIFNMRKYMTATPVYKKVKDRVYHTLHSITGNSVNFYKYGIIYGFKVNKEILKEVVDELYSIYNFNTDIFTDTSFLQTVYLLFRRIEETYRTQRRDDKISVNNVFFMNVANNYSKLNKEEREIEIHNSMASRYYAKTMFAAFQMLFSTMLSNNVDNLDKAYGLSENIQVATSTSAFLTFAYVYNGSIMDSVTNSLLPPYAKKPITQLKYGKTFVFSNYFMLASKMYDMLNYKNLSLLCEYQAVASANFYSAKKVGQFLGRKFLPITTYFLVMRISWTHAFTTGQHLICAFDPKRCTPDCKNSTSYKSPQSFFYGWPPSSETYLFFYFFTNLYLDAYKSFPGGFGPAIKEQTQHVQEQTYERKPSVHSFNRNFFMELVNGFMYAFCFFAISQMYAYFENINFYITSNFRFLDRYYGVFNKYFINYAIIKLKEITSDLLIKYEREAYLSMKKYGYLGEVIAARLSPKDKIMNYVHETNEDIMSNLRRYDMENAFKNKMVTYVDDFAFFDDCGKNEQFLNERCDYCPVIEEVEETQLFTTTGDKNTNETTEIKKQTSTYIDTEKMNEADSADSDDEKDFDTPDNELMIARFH

[5] = tested on: PSAC on Dd2-infected cells; assay type: cell-based, P. falciparum; conditions: Dd2 vs. HB3
[6] = tested on: PSAC activity on HB3^3rec; assay type: cell-based, P. falciparum; conditions: HB3^3rec before selection
[7] = tested on: HB3 parasites; assay: In vitro parasite growth inhibition, HB3; assay type: cell-based, P. falciparum; conditions: Plasmodium falciparum
[8] = biological target: PSAC of Dd2 transfectant expressing HB3 allele for PFC0120w (clag 3.1) (Plasmodium falciparum, UniProt O77310); conditions: read-out: transfectant K0.5; PFC0120w (clag 3.1) HB3 allele in Dd2
Sequence of PSAC of Dd2 transfectant expressing HB3 allele for PFC0120w (clag 3.1) (O77310 whole entry, looked up): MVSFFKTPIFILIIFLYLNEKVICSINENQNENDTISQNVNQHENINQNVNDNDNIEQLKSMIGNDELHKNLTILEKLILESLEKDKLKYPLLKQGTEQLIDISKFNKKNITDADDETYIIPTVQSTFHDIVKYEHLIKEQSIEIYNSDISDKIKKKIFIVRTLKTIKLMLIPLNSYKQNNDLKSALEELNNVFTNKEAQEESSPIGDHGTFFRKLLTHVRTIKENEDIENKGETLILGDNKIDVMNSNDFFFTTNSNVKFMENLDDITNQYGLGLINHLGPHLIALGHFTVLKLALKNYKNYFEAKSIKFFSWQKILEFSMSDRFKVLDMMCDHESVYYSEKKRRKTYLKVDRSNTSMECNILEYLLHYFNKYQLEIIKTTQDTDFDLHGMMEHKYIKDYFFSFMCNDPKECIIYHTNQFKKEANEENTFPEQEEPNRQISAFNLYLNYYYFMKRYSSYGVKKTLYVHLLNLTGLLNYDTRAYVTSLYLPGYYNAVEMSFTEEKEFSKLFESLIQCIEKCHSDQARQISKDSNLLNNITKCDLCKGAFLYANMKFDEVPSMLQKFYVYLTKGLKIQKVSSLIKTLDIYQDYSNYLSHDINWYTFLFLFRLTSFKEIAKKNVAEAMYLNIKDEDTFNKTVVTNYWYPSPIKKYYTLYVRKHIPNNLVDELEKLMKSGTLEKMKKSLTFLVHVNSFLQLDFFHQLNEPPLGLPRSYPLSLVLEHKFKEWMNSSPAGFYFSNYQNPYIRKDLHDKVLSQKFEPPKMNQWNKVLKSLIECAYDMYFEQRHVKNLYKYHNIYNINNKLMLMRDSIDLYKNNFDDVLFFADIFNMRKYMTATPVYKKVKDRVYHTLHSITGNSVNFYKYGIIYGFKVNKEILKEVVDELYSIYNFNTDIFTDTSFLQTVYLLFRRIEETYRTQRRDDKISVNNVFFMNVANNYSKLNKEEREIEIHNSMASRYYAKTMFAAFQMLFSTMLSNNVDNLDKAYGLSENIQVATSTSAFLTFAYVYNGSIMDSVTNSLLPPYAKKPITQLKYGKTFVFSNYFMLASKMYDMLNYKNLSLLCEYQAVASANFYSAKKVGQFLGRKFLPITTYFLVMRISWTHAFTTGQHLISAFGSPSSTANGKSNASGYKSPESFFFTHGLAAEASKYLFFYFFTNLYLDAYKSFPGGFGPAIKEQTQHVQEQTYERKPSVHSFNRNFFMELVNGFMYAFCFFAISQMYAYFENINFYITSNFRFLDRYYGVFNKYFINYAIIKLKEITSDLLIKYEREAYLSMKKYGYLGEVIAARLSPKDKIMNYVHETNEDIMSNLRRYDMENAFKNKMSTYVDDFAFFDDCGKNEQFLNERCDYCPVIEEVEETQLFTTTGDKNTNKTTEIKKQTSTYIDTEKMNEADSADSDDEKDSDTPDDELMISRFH

[9] = Inhibitor metabolism in parasite culture; assay type: in vitro ADME, P. falciparum; conditions: 40 μM, 37° C., 72 h in Dd2 culture
Experimental: To examine possible inhibitor metabolism in parasite culture, Dd2 parasites were cultivated in standard media with 40 μM ISPA-28 at 37° C. for 72 h. After centrifugation, the culture supernatant was used as a source of ISPA-28 for comparison to freshly-prepared compound in transport inhibition studies.

[10] = tested on: PSAC; assay: Transport inhibition in 22 different laboratory parasite lines; assay type: cell-based, P. falciparum
[11] = tested on: PSAC; assay: Uptake of alanine, proline and PhTMA by osmotic lysis; assay type: cell-based, P. falciparum
Text: ISPA-28 effects on uptake of the amino acids alanine and proline as well as the organic cation phenyl-trimethylammonium (PhTMA), solutes with known increases in permeability after infection (Ginsburg et al., Mol. Biochem. Parasitol. 14: 313-22 (1985); Bokhari et al., J. Membr. Biol. 226: 27-34 (2008)), were also examined.

[12] = tested on: Dd2 parasites; assay: In vitro parasite growth inhibition, Dd2; assay type: cell-based, P. falciparum
[13] = tested on: HB3^3rec; assay: In vitro parasite growth inhibition, HB3^3rec in PLM; assay type: cell-based, P. falciparum; conditions: after transport-based selection
[14] = biological target: channels associated with clag3.1 gene from Dd2 (Plasmodium falciparum, UniProt O77310); assay: PSAC inhibition, 7C20 channels associated with clag3.1; assay type: cell-based, P. falciparum; conditions: clag3.1 from Dd2; read-out: K0.5
Sequence of channels associated with clag3.1 gene from Dd2 (O77310 whole entry, looked up): as above
Experimental: (§1) A PSAC inhibitor with reversed specificity for the two Dd2 clag3 products was next sought. To this end, hits from the high-throughput screen of Example 2 were surveyed using the progeny clone 7C20 before and after selection for clag3.1 expression. This secondary screen identified ISPA-43 as a PSAC inhibitor with an allele specificity opposite that of ISPA-28 (Formula B below (K0.5 of 32 and 3.9 μM for channels associated with clag3.1 and clag3.2 genes from Dd2, respectively).

[15] = tested on: channels associated with clag3.2 gene from Dd2; assay: PSAC inhibition, 7C20 channels associated with clag3.2; assay type: cell-based, P. falciparum
Experimental: as §1

[16] = biological target: T2, channels associated with clag3.2 gene from Dd2 (Plasmodium falciparum, UniProt A0A1W6IZK1); assay: as above; assay type: cell-based, P. falciparum; conditions: read-out: K0.5; clag3.2 from Dd2
T2 construct: rows headed: K0.5; other: clag3.2 from Dd2
T2 sequence (A0A1W6IZK1 whole entry, looked up): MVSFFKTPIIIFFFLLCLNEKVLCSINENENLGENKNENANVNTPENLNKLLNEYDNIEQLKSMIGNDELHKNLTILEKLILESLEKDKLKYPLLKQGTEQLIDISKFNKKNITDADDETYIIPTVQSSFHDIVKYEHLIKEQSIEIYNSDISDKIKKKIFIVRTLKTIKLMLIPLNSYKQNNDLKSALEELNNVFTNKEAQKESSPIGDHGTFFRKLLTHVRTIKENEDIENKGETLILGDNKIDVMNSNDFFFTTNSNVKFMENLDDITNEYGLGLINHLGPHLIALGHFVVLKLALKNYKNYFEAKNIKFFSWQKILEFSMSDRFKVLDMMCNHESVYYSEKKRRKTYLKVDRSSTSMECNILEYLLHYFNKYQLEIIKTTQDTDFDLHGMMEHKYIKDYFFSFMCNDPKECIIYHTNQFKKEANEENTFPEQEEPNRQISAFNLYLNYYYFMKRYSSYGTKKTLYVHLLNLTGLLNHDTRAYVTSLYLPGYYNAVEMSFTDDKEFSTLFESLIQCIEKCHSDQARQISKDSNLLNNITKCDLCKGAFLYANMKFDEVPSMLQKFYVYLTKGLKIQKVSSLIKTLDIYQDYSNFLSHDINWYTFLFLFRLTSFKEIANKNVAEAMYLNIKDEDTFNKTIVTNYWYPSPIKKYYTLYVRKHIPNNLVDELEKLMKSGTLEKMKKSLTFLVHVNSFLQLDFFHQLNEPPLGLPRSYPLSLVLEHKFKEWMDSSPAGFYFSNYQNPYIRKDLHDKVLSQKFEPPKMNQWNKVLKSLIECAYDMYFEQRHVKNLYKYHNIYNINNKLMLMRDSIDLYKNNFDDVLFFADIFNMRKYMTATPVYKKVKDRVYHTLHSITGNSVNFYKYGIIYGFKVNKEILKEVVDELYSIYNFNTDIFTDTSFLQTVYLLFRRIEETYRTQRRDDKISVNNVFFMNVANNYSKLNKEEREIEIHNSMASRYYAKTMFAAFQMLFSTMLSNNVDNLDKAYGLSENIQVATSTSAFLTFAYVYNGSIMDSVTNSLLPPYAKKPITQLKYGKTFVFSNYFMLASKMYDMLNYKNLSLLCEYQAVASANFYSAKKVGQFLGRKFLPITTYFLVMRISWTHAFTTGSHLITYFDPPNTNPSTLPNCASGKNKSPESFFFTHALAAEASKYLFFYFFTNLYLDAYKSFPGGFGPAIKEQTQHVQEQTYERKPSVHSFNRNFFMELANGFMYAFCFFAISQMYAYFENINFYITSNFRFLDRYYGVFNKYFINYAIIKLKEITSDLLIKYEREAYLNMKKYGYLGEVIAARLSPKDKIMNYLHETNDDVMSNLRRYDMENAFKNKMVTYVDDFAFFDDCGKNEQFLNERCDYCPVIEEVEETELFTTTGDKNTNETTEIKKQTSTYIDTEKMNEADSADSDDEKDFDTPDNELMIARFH
Experimental: as §1

Compound | IC50 [1] [µM] | single PSAC channel inhibition [2] | single PSAC channel inhibition [3] | IC50 [4] [µM] | difference in half-maximal affinities [5] [fold] | channel's ISPA-28 affinity [6] | IC50 ([7]; HB3, PLM) [µM] | IC50 ([7]; HB3, RPMI-based media) [µM] | IC50 [8] [µM] | efficacy after metabolism under in vitro culture conditions [9] | transport inhibition in 22 laboratory parasite lines [10] | effects on uptake of alanine, proline and phenyl-trimethylammonium (PhTMA) [11] | IC50 ([12]; Plasmodium falciparum, DD2, PLM) [µM] | IC50 ([12]; Plasmodium falciparum, DD2, RPMI-based media) [µM] | IC50 ([12]; RPMI-based media) [µM] | growth inhibition sensitivity [13] | IC50 [14] [µM] | higher affinity for channels formed by Dd2 clag3.2 than clag3.1 [15] [fold] | IC50 [16] [µM]
CCn1cc(C2=NOC(C(=O)Nc3c(C)n(C)n(-c4ccccc4)c3=O)C2)c(C)n1 (stereo not shown) [ISPA-28] | 43 ± 2 | near-fully inhibited | largely unaffected | 0.095 ± 0.008 | ~800 | intermediate between those of HB3 and Dd2 | 52 ± 19 | > 40 | 0.14 ± 0.012 | not compromised by metabolism | significant transport inhibition was found with only Dd2 and W2 | inhibited with dose responses matching those for sorbitol | 0.66 ± 0.2 | > 40 | ~50 | sensitive to ISPA-28 at levels matching Dd2 | – | – | –
CCC(CC)C(=O)Nc1ncc2c(n1)CC(c1ccc(OC)c(OC)c1)CC2=O (stereo not shown) [ISPA-43] | – | – | – | – | – | – | – | – | – | – | – | – | – | – | – | – | 32 | 10 | 3.9
